In this experiment the test system is Atoh1 expression in mouse cerebellar neural precursor cells. Briefly: Atoh1 induction assay in mouse cerebellar neural precursor cells (NPCs), Atoh1-GFP reporter. Type of experiment: cell-based. The settings on record: 10 doses 50 μM to 200 nM, 72 hours treatment, DMSO control = 1, more than 5 considered significant, read-out: fold difference (maximum fold difference of GFP average intensity in cell nuclei over the DMSO control). How it is done:
Compounds of the present disclosure were assessed for their ability to increase the Atoh1 expression in mouse cerebellar neural precursor cells. The ability of compounds of the present disclosure to induce new hair cell formation was assessed in ex vivo hair cell induction assay using 6-day-postnatal mouse cochlea explants with hair cell damage.
Atoh1 Induction Assay in Mouse Cerebellar Neural Precursor Cells (NPCs)
Atoh1 induction assay was conducted with in vitro cultured cerebellar neural precursor cells isolated from neonatal transgenic Atoh1-GFP mice. Atoh1 expression is mainly regulated by the enhancer, and the nuclear GFP was driven by the cloned enhancer sequence at 3′ of Atoh1 which had high conservation among mammalians. So Atoh1 induction could be reflected by GFP activation in cerebellar neural precursor cells (Helms et al., Development 2000; 127: 1185-1196; Lumpkin et al., Gene Expression Patterns 2003; 3: 389-395). Postnatal 3 days pups were dissected for cerebellum tissue isolation. The cerebellum tissue was cut into small pieces, and dissociated with 0.05% Trypsin for about 10 minutes at 37° C., and then filtered with a 70 uM cell strainer. The cells were cultured as neuropsheres for the first 2 days in ultra-low attachment dish/well-plate with DMEM/F12+1% N2 &2% B27 with 1% P/S, 20 ng/ml rhFGF2 and 20 ng/ml rhEGF (R&D Systems). Then the spheres were plated to the matrigel (1:30 diluted in DMEM/F12)-coated tissue culture dish for monolayer culture. After 4.5-5.5 days culture in vitro (DIV), cells were dissociated with 0.05% trypsin into single cells, and frozen after cell number calculation.
The cerebellar neural precursor cells (NPCs) were re-thawed from stock and cultured for another 2 days before used for Atoh1 induction assay. On the first day of assay, NPCs were seeded into matrigel-coated 384 well plates (Black view-plate, PE) at 2500 cells/well. After over-night culture, the NPCs were treated with representative compounds of the present disclosure with 1:2 serial dilutions for 10 doses, from 50 μM to 200 nM, with DMSO as negative control. After 72 hours treatment without medium change, the cells were fixed with 4% formalin for staining. Assay plates were stained with GFP antibody (Abcam, #13970, 1:1000) to amplify endogenous GFP signal and then read by Cellomics.
Consider `O=C(NCCCCCN1CC(C(=O)NCCO)C1)c1cc(-c2ccc(F)cc2)on1` [Example 90, 5-(4-Fluorophenyl)-N-(5-(3-((2-hydroxyethyl)carbamoyl)azetidin-1-yl)pentyl)isoxazole-3-carboxamide], for which the maximal fold induction was 19.1.
As for `O=C(NCCCCCN1CCN2CCCC2C1)c1cc(-c2cccs2)on1` (stereo not shown) [Example 41], the maximal fold induction is 21.9.
`CNC(=O)NC1CN(CCCCCNC(=O)c2cc(-c3cccs3)on2)C1` [Example 18, N-(5-(3-(3-Methylureido)azetidin-1-yl)pentyl)-5-(thiophen-2-yl)isoxazole-3-carboxamide]: the maximal fold induction turned out to be 17.6.
`CN1C[C@H]2C[C@@H]1CN2CCCCCNC(=O)c1cc(-c2cccs2)on1` [Example 60]: the maximal fold induction worked out at 18.7.
Turning to `O=C(NCCCCCN1CCCC(O)C1)c1cc(-c2cccs2)on1` (stereo not shown) [Example 57], the maximal fold induction was 15.4.
In the case of `N#CC1CN(CCCCCNC(=O)c2cc(-c3cccs3)on2)C1` [Example 35], the maximal fold induction was determined as 29.7.
`CNC(=O)NC1CN(CCCCCNC(=O)c2cc(-c3ccc(F)cc3)on2)C1` [Example 23, 5-(4-Fluorophenyl)-N-(5-(3-(3-methylureido)azetidin-1-yl)pentyl)isoxazole-3-carboxamide]: the maximal fold induction was 25.7.
Take `O=C(NCCCCCN1CCCC1)c1cc(-c2cccs2)on1` [Example 7, N-(5-(Pyrrolidin-1-yl)pentyl)-5-(thiophen-2-yl)isoxazole-3-carboxamide]: the maximal fold induction was found to be 31.
As to `CC(=O)NC1CN(CCCCCNC(=O)c2cc(-c3cccs3)on2)C1` [Example 16, N-(5-(3-Acetamidoazetidin-1-yl)pentyl)-5-(thiophen-2-yl)isoxazole-3-carboxamide], the maximal fold induction is 25.3.
Take `N#CCCOC(=O)NC1CN(CCCCCNC(=O)c2cc(-c3cccs3)on2)C1` [Example 21, 2-Cyanoethyl (1-(5-(5-(thiophen-2-yl)isoxazole-3-carboxamido)pentyl)azetidin-3-yl)carbamate]: the maximal fold induction amounted to 13.
Take `NC(=O)C1CN(CCC(F)(F)CCNC(=O)c2cc(-c3ccc(F)cc3)on2)C1` [Example 76, N-(5-(3-Carbamoylazetidin-1-yl)-3,3-difluoropentyl)-5-(4-fluorophenyl)isoxazole-3-carboxamide]: the maximal fold induction worked out at 20.4.
As to `O=C(NCCCCCN1CC(C(=O)N[C@H]2CCC[C@@H]2O)C1)c1cc(-c2ccc(F)cc2)on1` [Example 91, 5-(4-Fluorophenyl)-N-(5-(3-(((1S,2S)-2-hydroxycyclopentyl)carbamoyl)azetidin-1-yl)pentyl)isoxazole-3-carboxamide], the maximal fold induction amounted to 34.5.
With `CC(C)C[C@H]1CN(CCCCCNC(=O)c2cc(-c3cccs3)on2)CCN1` [Example 6, (S)—N-(5-(3-isobutylpiperazin-1-yl)pentyl)-5-(thiophen-2-yl)isoxazole-3-carboxamide] the figure was 9; with `CNC(=O)C1CN(CCCCCNC(=O)c2cc(-c3ccc(F)cc3)on2)C1` [Example 85, 5-(4-Fluorophenyl)-N-(5-(3-(methylcarbamoyl)azetidin-1-yl)pentyl)isoxazole-3-carboxamide], 20.7; with `CS(=O)(=O)NC1CN(CCCCCNC(=O)c2cc(-c3cccs3)on2)C1` [Example 19, N-(5-(3-(Methylsulfonamido)azetidin-1-yl)pentyl)-5-(thiophen-2-yl)isoxazole-3-carboxamide], 31.7.
As to `O=C(NCCCCCN1CCn2cncc2C1)c1cc(-c2cccs2)on1` [Example 94, N-(5-(5,6-dihydroimidazo[1,5-a]pyrazin-7(8H)-yl)pentyl)-5-(thiophen-2-yl)isoxazole-3-carboxamide], the maximal fold induction stood at 20.6.
Next, `N#CC1CCN(CCCCCNC(=O)c2cc(-c3cccs3)on2)C1` (stereo not shown) [Example 29]: 20.1; `O=C(NCCCCCN1CC(C(=O)N[C@H]2C[C@H](O)C2)C1)c1cc(-c2ccc(F)cc2)on1` [Example 89, 5-(4-Fluorophenyl)-N-(5-(3-(((1,3-trans)-3-hydroxycyclobutyl)carbamoyl)azetidin-1-yl)pentyl)isoxazole-3-carboxamide]: 11.
Consider `O=C(NCCCCCN1CC2CC1CN2)c1cc(-c2cccs2)on1` (stereo not shown) [Example 4, N-(5-(2,5-Diazabicyclo[2.2.1]heptan-2-yl)pentyl)-5-(thiophen-2-yl)isoxazole-3-carboxamide], for which the maximal fold induction stood at 30.7.
For the compound `O=C(NCCCCCN1CCNCC1)c1cc(-c2cccs2)on1` [Example 3, N-(5-(Piperazin-1-yl)pentyl)-5-(thiophen-2-yl)isoxazole-3-carboxamide], the maximal fold induction came to 21.
In the case of `O=C1CN(CCCCCNC(=O)c2cc(-c3cccs3)on2)CCN1` [Example 37], the maximal fold induction was 13.5.
As to `O=C(NCCCCCN1CCC(F)(F)CC1)c1cc(-c2cccs2)on1` [Example 31], the maximal fold induction stood at 16.
With `O=C(NC1CN(CCCCCNC(=O)c2cc(-c3cccs3)on2)C1)OCCO` [Example 20, 2-Hydroxyethyl (1-(5-(5-(thiophen-2-yl)isoxazole-3-carboxamido)pentyl)azetidin-3-yl)carbamate] the figure was 29.4; with `O=C(NCCCCCN1CCC(O)CC1)c1cc(-c2cccs2)on1` [Example 39], 20.5; with `C[C@H]1CN(CCCCCNC(=O)c2cc(-c3cccs3)on2)C[C@H](C)O1` [Example 43], 21.5.
Take `O=C(NCCCCCN1CC(c2ncc[nH]2)C1)c1cc(-c2cccs2)on1` [Example 95, N-(5-(3-(1H-imidazol-2-yl)azetidin-1-yl)pentyl)-5-(thiophen-2-yl)isoxazole-3-carboxamide]: the maximal fold induction came out at 21.8.
Next, `O=C(NCCCCCN1CC(C(=O)N[C@H]2C[C@H](O)C2)C1)c1cc(-c2cccs2)on1` [Example 80, N-(5-(3-(((1,3-trans)-3-Hydroxycyclobutyl)carbamoyl)azetidin-1-yl)pentyl)-5-(thiophen-2-yl)isoxazole-3-carboxamide]: 47.2; `CC(=O)C1CN(CCCCCNC(=O)c2cc(-c3cccs3)on2)C1` [Example 93, N-(5-(3-Acetylazetidin-1-yl)pentyl)-5-(thiophen-2-yl)isoxazole-3-carboxamide]: 12.4.
Next, `CS(=O)(=O)NC1CN(CCCCCNC(=O)c2cc(-c3ccc(F)cc3)on2)C1` [Example 22, 5-(4-Fluorophenyl)-N-(5-(3-(methylsulfonamido)azetidin-1-yl)pentyl)isoxazole-3-carboxamide]: 25.5; `O=C(NCCCCCN1CC(F)C1)c1cc(-c2ccc(F)cc2)on1` [Example 44]: 34.7.
As for `CC(=O)N1CCN(CCCCCNC(=O)c2cc(-c3ccc(F)cc3)on2)CC1` [Example 30], the maximal fold induction is 13.4.
With `CN(C)C(=O)C1CN(CCCCCNC(=O)c2cc(-c3cccs3)on2)C1` [Example 46], the maximal fold induction is 18.
For the compound `NS(=O)(=O)C1CN(CCCCCNC(=O)c2cc(-c3ccc(F)cc3)on2)C1` [Example 70], the maximal fold induction came to 14.
`O=C(NCCCCCN1CCNC(c2ccccc2)C1)c1cc(-c2cccs2)on1` (stereo not shown) [Example 1, N-(5-(3-Phenylpiperazin-1-yl)pentyl)-5-(thiophen-2-yl)isoxazole-3-carboxamide]: the maximal fold induction was 22.4.
On to `N#CCCNC(=O)C1CN(CCCCCNC(=O)c2cc(-c3ccc(F)cc3)on2)C1` [Example 87, N-(5-(3-((2-Cyanoethyl)carbamoyl)azetidin-1-yl)pentyl)-5-(4-fluorophenyl)isoxazole-3-carboxamide], for which the maximal fold induction is 27.8.
With `O=C(NCCCCCN1CC(CO)C1)c1cc(-c2ccc(F)cc2)on1` [Example 33], the maximal fold induction was 26.1.
Regarding `O=C(NCCCCCN1CC2(COC2)C1)c1cc(-c2cccs2)on1` [Example 34], the maximal fold induction is 20.8.
With `COC(=O)N1CCN(CCCCCNC(=O)c2cc(-c3cccs3)on2)CC1` [Example 24, Methyl 4-(5-(5-(thiophen-2-yl)isoxazole-3-carboxamido)pentyl)piperazine-1-carboxylate], the maximal fold induction stood at 24.
Take `CN1CCN(CCC(F)(F)CCNC(=O)c2cc(-c3cccs3)on2)CC1` [Example 74, N-(3,3-Difluoro-5-(4-methylpiperazin-1-yl)pentyl)-5-(thiophen-2-yl)isoxazole-3-carboxamide]: the maximal fold induction was determined as 19.4.
As to `O=C(NCCCCCN1CC(C(=O)NC2CC2)C1)c1cc(-c2cccs2)on1` [Example 62], the maximal fold induction amounted to 26.6.

(Values after patent US20220117945A1, “ISOXAZOLE CARBOXAMIDE COMPOUNDS AND USES THEREOF” (NOVARTIS AG, priority 2017, published 2022).)
